Consider two compounds from patent publication US5385922A, “Thiazolidine derivatives” (Cedona Pharmaceuticals B.V., priority 1990, dated 1995).

pEC50, pIC50: −log10 of the molar value.

The subject of experiment [1] is rat aorta contracted using phenylephrine. The following applies: cited from earlier work.
Experiment [2] relates to angiotensin converting enzyme (ACE). The conditions noted are these: literature, WO 89/12627, cited from earlier work.
Experiment [3] concerns contracted rat aorta. The experiment is described as follows: In vitro rat aorta assay: relaxation of aorta strips contracted with phenylephrine. Format: cell-based. The conditions noted are these: rat aorta strips contracted with 10^-7 M phenylephrine; read-out: EC50 (mean): concentration at which residual contraction is 50% of maximum. As to the method:
Strips of thoracial rat aortae (without aortic arch, helically cut; length 1-1.5 cm; width about 2 mm) were place in an organ bath [20 ml; Krebs Ringer medium bubbled with O2 /CO2 (95/5%) at 37° C.]. A resting tension of 0.5 g was applied and the preparations were equilibrated during 100 min (fresh buffer solution every 20 min). The strips were isotonically contracted with 10^-7 M phenylephrine.
Drug-induced relaxation was tested at increasing concentration (half log steps), till maximal or full relaxation (corresponding to basal precontraction value of organ length) had been reached.
Responses were calculated as change in organ length relatively to maximal displacement by contraction, EC50 values corresponding to the drug concentration at which residual contraction is 50% of maximum.

The subject of experiment [4] is arterial blood pressure. Kind of experiment: Anesthetized rabbit experiments: arterial blood pressure and heart rate after infusion. Further: key: Inactive: No decrease or decrease less than 5%; Active: Decrease between 5 and 40%; Very Active: Decrease greater than 40%. The following applies: anesthetized rabbit; end of 10 min infusion at highest dose tested (150-200 μg×kg^-1×min^-1); decrease as percentage of basal value. Format: in vivo, New Zealand white rabbits. As to the method: In the anesthetized rabbits, the decrease of arterial blood pressure and the effect on the heart rate after infusion of the test compounds was determined.
New Zealand white rabbits (2.5-3 kg) were anesthetized (30 mg×kg^-1 pentobarbitone, i.v., supplemental doses as needed). Tracheotomy was performed, and an intra-tracheal cannula was inserted. No artificial ventilation was applied and body temperature was maintained at 37°-38° C.
Left ventricular pressure (LVP) was measured (Millar Mikro-Tip catheter via the right carotid artery with transducer in the left ventricle). The LVP signal was differentiated electronically to obtain the rate of change of LVP (LV dP/dt). The heart rate (HR) was derived from the LVP pulse signal. The jugular vein was cannulated for infusion of the test compounds. Aortic blood pressure (SAP and DAP) was monitored (Gould-Statham pressure transducer) by inserting a polyethylene catheter filled with heparin (50 IU×ml^-1) through the femoral artery into the abdominal aorta. Heparin (150 IU×kg^-1, i.v.) was administered to prevent blood clotting.
After completion of surgical procedures, the rabbits were allowed to recover for 15 minutes before drug administration was started.
Drugs were infused at constant rate (0.5 ml×min^-1) for 10 minutes at various doses, resulting in a typical dose range of 2.0, 20.0 and 200 μg×kg^-1 ×min^-1 (2.5 kg rabbit).
Due to poor solubility, 1 mg×ml^-1 solutions of all the compounds tested were prepared in Intralipid® 10%, containing 10% (v/v) dimethyl sulfoxide (DMSO). […] At the infusion of lower doses, the 1 mg×ml^-1 stock solutions were diluted with Intralipid® 10%.
The presented data are based on the effects obtained at the end of the 10 min infusion period at the highest dose tested (150-200 μg×kg^-1 ×min^-1). The indicated ratings are referring to the effects (decrease, defined as percentage of basal value before infusion of the drug) on arterial blood pressure as follows: […]

In general, pIC50 refers to −log10 of the IC50, conventionally taken in molar units. As to `C[C@H](CSN=O)C(=O)N1CCC[C@H]1C(=O)O` [S-ni-trosocaptopril], the pIC50 in experiment [1] (rat aorta contracted using phenylephrine, read-out: relaxing effect via the NO portion, IC50) is roughly 7.00; in experiment [2] (read-out: ACE-inhibiting effect IC50), roughly 9.00. For the same compound, the “relaxing concentration relative to ACE-inhibiting concentration” value in experiment [1] (relaxation IC50 vs ACE-inhibition IC50) is “about 100 times higher”. For the same compound, the “ACE-inhibiting effect compared with captopril (in words)” value in experiment [2] was “comparable to that of captopril”.
On to “N-benzoyl-2-butyl-5,5-dimethyl-4-[(5-nitroxyisosorbide)carbonyl]thiazolidine [Example III]”, for which, in experiment [3], the pEC50 is 7.01. For the same compound, the “Activity with regard to the lowering of blood pressure” value in experiment [4] was “Active”.
